From patent US20130150340A1, “6-(4-Hydroxy-phenyl)-1H-pyrazolo[3,4-b]pyridine-4-carboxylic acid amide derivatives as kinase inhibitors” (SANOFI, priority 2011, published 2013)

target: T1, human full-length recombinant PKC βII (Homo sapiens, UniProt P05771); assay: Determination of PKC βII inhibition (Caliper mobility-shift kinase assay); type: biochemical; settings: example compounds at a final concentration of 1.14 μM (±0.15 μM); 60 min incubation at 32° C.
T1 construct: Active human full-length recombinant PKC βII; purchased Invitrogen GmbH, Darmstadt, Germany
T1 sequence (P05771 1-673 isoform P05771-2): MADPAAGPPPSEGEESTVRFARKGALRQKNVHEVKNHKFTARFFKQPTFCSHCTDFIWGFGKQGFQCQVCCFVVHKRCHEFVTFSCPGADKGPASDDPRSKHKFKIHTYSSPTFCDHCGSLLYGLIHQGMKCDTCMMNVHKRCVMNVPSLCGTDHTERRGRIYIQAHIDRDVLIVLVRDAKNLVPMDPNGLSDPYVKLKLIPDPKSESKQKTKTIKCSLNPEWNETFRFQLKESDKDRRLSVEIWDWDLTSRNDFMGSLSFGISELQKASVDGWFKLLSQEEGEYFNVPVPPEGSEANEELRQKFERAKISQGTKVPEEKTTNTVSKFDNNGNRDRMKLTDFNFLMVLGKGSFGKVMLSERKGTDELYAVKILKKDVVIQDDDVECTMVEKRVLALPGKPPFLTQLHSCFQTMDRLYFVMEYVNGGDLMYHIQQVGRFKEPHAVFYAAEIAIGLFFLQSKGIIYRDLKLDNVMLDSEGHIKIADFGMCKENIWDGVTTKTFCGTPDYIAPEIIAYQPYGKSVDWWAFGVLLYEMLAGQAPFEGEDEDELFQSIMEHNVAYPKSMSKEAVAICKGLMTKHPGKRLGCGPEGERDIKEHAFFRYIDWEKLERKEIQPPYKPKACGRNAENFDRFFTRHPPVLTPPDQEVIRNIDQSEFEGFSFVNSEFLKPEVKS
Protocol: Determination of PKC 3H Inhibition
PKC βII inhibition was determined according to the following protocol:
Active human full-length recombinant PKC βII and the peptide substrate, Fluorescein-RFARKGSLRQKNV, were purchased from Invitrogen GmbH, Darmstadt, Germany. Adenosine-5′-triphosphate (ATP), bovine serum albumine (BSA), dimethylsulphoxide (DMSO), 4-(2-hydroxyethyl)piperazine-1-ethanesulfonic acid (Hepes), Triton X-100, 1,2-Dioleoyl-sn-glycerol (DAG), L-α-Phosphatidyl-L-serine (PS), calcium chloride (CaCl2), and Pluronic F-68 were purchased from Sigma-Aldrich, Munich, Germany. Magnesium chloride, 1 M sodium hydroxide solution, 1M hydrochloric acid solution and EDTA were obtained from Merck Biosciences, Darmstadt, Germany.
Test compounds were diluted to three times the test concentration in buffer 1 (30 mM Hepes-NaOH, pH 7.4, 0.01% Pluronic F-68 and 3% (v/v) DMSO). The PKC βII enzyme was diluted to a concentration of 30 ng/ml in buffer 2 (30 mM Hepes-NaOH, pH 7.4, 15 mM MgCl2, 150 μM CaCl2, 150 μg/ml PS, 60 μg/ml DAG, and 0.045% (w/v) Triton X-100). The peptide substrate and ATP were diluted to concentrations of 3 μM and 120 μM, respectively, in buffer 2. Two μl of the compound solution were mixed with 2 μl of the diluted enzyme in a 384-well small volume microtiter plate (Greiner, Bio-One, Frickenhausen, Germany), and the kinase reaction was initiated by addition of 2 μl of the solution containing peptide substrate and ATP. After 60 min incubation at 32° C., the reaction was stopped by addition of 20 μl of a solution containing 130 mM Hepes-NaOH, pH 7.4, 0.0195% (v/v) Brij-35, 6.5 mM EDTA, 0.13% chip coating reagent 3 (Caliper Lifescience Inc, Hopkinton, Mass.) and 6.5% (v/v) DMSO. Phosphorylation of the substrate peptide was then detected on a Caliper 3000 instrument essentially as described by Pommereau et al (J. Biomol. Screening 2004, 9(5), […]), Separation conditions were as follows: Pressure −0.8 psi, upstream voltage −3000 V, downstream voltage −800 V. Positive controls (buffer 1 instead of compound) and negative controls (buffer 1 instead of compound and buffer 2 instead of kinase solution) were run in parallel on each plate. Fractional turnover (R) was determined as the height of the peak of the phosphorylated peptide product divided by the sum of the unphosphorylated substrate and phosphorylated product peak heights. Percent-inhibition values for the test compounds were determined using the formula
% Inhibition=100*(1−(Rcompound−Rnegative control)/(Rpositive control−Rnegative control).

SMILES	inhibition at 1.14 µM [%]
CC(=O)N1CCCN(C(=O)c2cc(-c3ccc(O)cc3)nc3[nH]ncc23)CC1 [Example 59, 1-{4-[6-(4-Hydroxy-phenyl)-1H-pyrazolo[3,4-b]pyridine-4-carbonyl]-[1,4]diazepan-1-yl}-ethanone]	48
CCN1CCCC(NC(=O)c2cc(-c3ccc(O)cc3)nc3[nH]ncc23)C1 (centres unmarked) [Example 60, 6-(4-Hydroxy-phenyl)-1H-pyrazolo[3,4-b]pyridine-4-carboxylic acid (1-ethyl-piperidin-3-yl)-amide]	54
O=C(c1cc(-c2ccc(O)cc2)nc2[nH]ncc12)N1CCN(C(=O)C2CCCO2)CC1 (centres unmarked) [Example 61, [6-(4-Hydroxy-phenyl)-1H-pyrazolo[3,4-b]pyridin-4-yl]-[4-(tetrahydro-furan-2-carbonyl)-piperazin-1-yl]-methanone]	22
CN1CC(NC(=O)c2cc(-c3ccc(O)cc3)nc3[nH]ncc23)C1 [Example 62, 6-(4-Hydroxy-phenyl)-1H-pyrazolo[3,4-b]pyridine-4-carboxylic acid (1-methyl-azetidin-3-yl)-amide]	73
O=C1CCC(CNC(=O)c2cc(-c3ccc(O)cc3)nc3[nH]ncc23)N1 (centres unmarked) [Example 63, 6-(4-Hydroxy-phenyl)-1H-pyrazolo[3,4-b]pyridine-4-carboxylic acid (5-oxo-pyrrolidin-2-ylmethyl)-amide]	48
CCN1CCCN(C(=O)c2cc(-c3ccc(O)cc3)nc3[nH]ncc23)CC1 [Example 64, (4-Ethyl-[1,4]diazepan-1-yl)-[6-(4-hydroxy-phenyl)-1H-pyrazolo[3,4-b]pyridin-4-yl]-methanone]	45
CC1CCN(C2CCN(C(=O)c3cc(-c4ccc(O)cc4)nc4[nH]ncc34)C2)CC1 (centres unmarked) [Example 65, [6-(4-Hydroxy-phenyl)-1H-pyrazolo[3,4-b]pyridin-4-yl]-[3-(4-methyl-piperidin-1-yl)-pyrrolidin-1-yl]-methanone]	34
CN1CCC(NC(=O)c2cc(-c3ccc(O)cc3)nc3[nH]ncc23)CC1 [Example 66, 6-(4-Hydroxy-phenyl)-1H-pyrazolo[3,4-b]pyridine-4-carboxylic acid (1-methyl-piperidin-4-yl)-amide]	59
O=C(NC1CCN(C2CCCCC2)CC1)c1cc(-c2ccc(O)cc2)nc2[nH]ncc12 [Example 67, 6-(4-Hydroxy-phenyl)-1H-pyrazolo[3,4-b]pyridine-4-carboxylic acid (1-cyclohexyl-piperidin-4-yl)-amide]	64
CC(=O)N1CCC(NC(=O)c2cc(-c3ccc(O)cc3)nc3[nH]ncc23)CC1 [Example 68, 6-(4-Hydroxy-phenyl)-1H-pyrazolo[3,4-b]pyridine-4-carboxylic acid (1-acetyl-piperidin-4-yl)-amide]	40
O=C1CC[C@@H](NC(=O)c2cc(-c3ccc(O)cc3)nc3[nH]ncc23)CN1 [Example 69, 6-(4-Hydroxy-phenyl)-1H-pyrazolo[3,4-b]pyridine-4-carboxylic acid ((R)-6-oxo-piperidin-3-yl)-amide]	59
CCN1CC2CC1CN2C(=O)c1cc(-c2ccc(O)cc2)nc2[nH]ncc12 (centres unmarked) [Example 70, (5-Ethyl-2,5-diaza-bicyclo[2.2.1]hept-2-yl)-[6-(4-hydroxy-phenyl)-1H-pyrazolo[3,4-b]pyridin-4-yl]-methanone]	46
COCCN1CCN(C(=O)c2cc(-c3ccc(O)cc3)nc3[nH]ncc23)CC1 [Example 71, [6-(4-Hydroxy-phenyl)-1H-pyrazolo[3,4-b]pyridin-4-yl]-[4-(2-methoxy-ethyl)-piperazin-1-yl]-methanone]	27
O=C(NC1CN2CCC1CC2)c1cc(-c2ccc(O)cc2)nc2[nH]ncc12 (centres unmarked) [Example 72, 6-(4-Hydroxy-phenyl)-1H-pyrazolo[3,4-b]pyridine-4-carboxylic acid (1-aza-bicyclo[2.2.2]oct-3-yl)-amide]	78
CN1CCC(N(C)C(=O)c2cc(-c3ccc(O)cc3)nc3[nH]ncc23)CC1 [Example 73, 6-(4-Hydroxy-phenyl)-1H-pyrazolo[3,4-b]pyridine-4-carboxylic acid methyl-(1-methyl-piperidin-4-yl)-amide]	31
O=C(c1cccnc1)N1CCN(C(=O)c2cc(-c3ccc(O)cc3)nc3[nH]ncc23)CC1 [Example 74, [6-(4-Hydroxy-phenyl)-1H-pyrazolo[3,4-b]pyridin-4-yl]-[4-(pyridine-3-carbonyl)-piperazin-1-yl]-methanone]	35
O=C(NC1CCN(Cc2ccncc2)CC1)c1cc(-c2ccc(O)cc2)nc2[nH]ncc12 [Example 75, 6-(4-Hydroxy-phenyl)-1H-pyrazolo[3,4-b]pyridine-4-carboxylic acid (1-pyridin-4-ylmethyl-piperidin-4-yl)-amide]	45
CN1CCN(C(=O)c2cc(-c3ccc(O)cc3)nc3[nH]ncc23)CC1=O [Example 76, 4-[6-(4-Hydroxy-phenyl)-1H-pyrazolo[3,4-b]pyridine-4-carbonyl]-1-methyl-piperazin-2-one]	30
O=C(N[C@@H]1CCCN(Cc2ccccc2)C1)c1cc(-c2ccc(O)cc2)nc2[nH]ncc12 [Example 77, 6-(4-Hydroxy-phenyl)-1H-pyrazolo[3,4-b]pyridine-4-carboxylic acid ((R)-1-benzyl-piperidin-3-yl)-amide]	57
O=C(NC1CCN(Cc2cccnc2)CC1)c1cc(-c2ccc(O)cc2)nc2[nH]ncc12 [Example 78, 6-(4-Hydroxy-phenyl)-1H-pyrazolo[3,4-b]pyridine-4-carboxylic acid (1-pyridin-3-ylmethyl-piperidin-4-yl)-amide]	84
